Measured values from publication PMC6155021, “Ancient and modern anticonvulsants act synergistically in a KCNQ potassium channel binding pocket” (Nature Communications, 2018).

Experiments:
[1] = target: KCNQ2-W236L/KCNQ3-W265L channels (Homo sapiens, UniProt O43525+O43526, W236L/W265L); assay: Two-electrode voltage-clamp of W236L-Q2/W265L-Q3 mutant channels in Xenopus oocytes; format: cell-based; conditions: 100 µM
Description: (§1) cRNA transcripts encoding human KCNA1, KCNQ1, KCNQ2, KCNQ3, KCNQ4, or KCNQ5 were generated by in vitro transcription using the T7 polymerase message machine kit (Thermo Fisher Scientific), after vector linearization, from cDNA sub-cloned into plasmids incorporating X. laevis β-globin 5′ and 3′ UTRs flanking the coding region to enhance translation and cRNA stability. cRNA was quantified by spectrophotometry. Mutant cDNAs were generated by site-directed mutagenesis using a QuikChange kit according to manufacturer’s protocol (Stratagene, San Diego, CA) and corresponding cRNAs prepared as above. Defolliculated stage V and VI X. laevis oocytes (Ecocyte Bioscience, Austin, TX) were injected with Kv channel α subunit cRNAs (10 ng total per oocyte). Oocytes were incubated at 16 °C in Barth’s saline solution (Ecocyte) containing penicillin and streptomycin, with daily washing, for 3–5 days prior to two-electrode voltage-clamp (TEVC) recording.
(§2) Oocytes were placed in a small-volume oocyte bath (Warner) and viewed with a dissection microscope. Chemicals were sourced from Sigma. Bath solution was (in mM): 96 NaCl, 4 KCl, 1 MgCl2, 1 CaCl2, 10 HEPES (pH 7.6). […] MTX (DMSO), sorbic acid (ethanol), and glutaconic acid (molecular grade H2O) were stored at −20 °C as 1 M stocks. Oleamide was stored as a 1 mM stock in ethanol at 4 °C. Palmitic acid was conjugated with bovine serum albumin as a 1 mM stock and stored at −20 °C. All compounds were diluted to working concentrations each experimental day. All compounds were introduced to the recording bath via gravity perfusion at a constant flow of 1 ml/min for 3 min prior to recording. Pipettes were of 1–2 MΩ resistance when filled with 3 M KCl. Currents were recorded in response to pulses between −80 and +40 mV at 20 mV intervals, or a single pulse to +40 mV, from a holding potential of −80 mV, to yield current–voltage relationships, current magnitude, and for quantifying activation rate. TEVC data analysis was performed with Clampfit10.2 (Molecular Devices) and Graphpad Prism software (GraphPad, San Diego, CA, USA); values are stated as mean ± SEM. Normalized tail currents were plotted versus prepulse voltage and fitted with a single Boltzmann function:1 g=A1-A2/1+expV12-Vy+A2, where g is the normalized tail conductance, A1 is the initial value at −∞, A2 is the final value at +∞, V1/2 is the half-maximal voltage of activation, and Vs the slope factor. Activation and deactivation kinetics were fitted with single-exponential functions.

[2] = target: T1, KCNQ2/3 channels (Homo sapiens, UniProt O43525+O43526); assay: Two-electrode voltage-clamp of KCNQ2/3 channels expressed in Xenopus laevis oocytes; format: cell-based; conditions: for Non-normalized tail current V0.5 / Normalized tail current V0.5 / Slope: KCNQ2/3
Description: as §1, §2

[3] = target: T1, KCNQ2/3 channels; conditions: previously found, cited from earlier work
[4] = system: pentylene tetrazole-induced seizures; assay: PTZ chemoconvulsant assay; format: in vivo, mouse; conditions: mice
Description: We compared anticonvulsant activities of test compounds in male C57BL/6 mice (Charles River) aged 2–3 months. Mice were housed and used according to the recommendations in the Guide for the Care and Use of Laboratory Animals of the National Institutes of Health (NIH Publication, 8th edition, 2011). The study protocol was approved by the Institutional Animal Care and Use Committee of University of California, Irvine, which confirmed that all relevant ethical regulations were adhered to. Chemicals were sourced from Sigma (St. Louis, MO, USA) . A pentylene tetrazole (PTZ) chemoconvulsant assay was used[54]. […] Following the PTZ injection, mice were caged individually and an observer (GWA) blinded to the drug used recorded, over 20 min, clonic and tonic seizure incidence, and seizure-related mortality.
All values are expressed as mean ± SEM. Chi-squared analysis was used to compare seizure-related mortality in mice. One-way ANOVA was applied for all other tests; if multiple comparisons were performed, a post-hoc Tukey’s HSD test was performed following ANOVA. All p-values were two-sided. Statistical significance was defined as p < 0.05.

[5] = target: KCNA1 (Homo sapiens, UniProt Q09470); assay: Two-electrode voltage-clamp of KCNA1 in Xenopus oocytes; format: cell-based
Description: as §1
as §2, with “TEVC data analysis was performed with Clampfit10.2 (Molecular Devices) and Graphpad Prism software (GraphPad, San Diego, CA, USA); values are stated as mean ± SEM. Normalized tail currents were plotted versus prepulse voltage and fitted with a single Boltzmann function:1 g=A1-A2/1+expV12-Vy+A2, where g is the normalized tail conductance, A1 is the initial value at −∞, A2 is the final value at +∞, V1/2 is the half-maximal voltage of activation, and Vs the slope factor. Activation and deactivation kinetics were fitted with single-exponential functions.” left out

[6] = cited from earlier work
[7] = target: KCNQ5 (Homo sapiens, UniProt Q9NR82); assay: cell-based; format: cell-based; conditions: KCNQ5; 1 µM
Description: as §1, §2

[8] = target: KCNQ4 (Homo sapiens, UniProt P56696); assay: cell-based; format: cell-based; conditions: KCNQ4; 1 µM
Description: as §1, §2

[9] = target: KCNQ3* (KCNQ3-A315T) (Homo sapiens, UniProt O43525, A315T); assay: cell-based; format: cell-based; conditions: KCNQ3*; 1 µM
Description: as §1, §2

[10] = target: T2, KCNQ2 (Homo sapiens, UniProt O43526); set-up: method as in PMID 11466425; conditions: 10 µM RTG; cited from earlier work
[11] = target: T2, KCNQ2; assay: Two-electrode voltage-clamp of homomeric KCNQ2 in Xenopus oocytes; format: cell-based; conditions: KCNQ2; 1 µM
Description: as §1, §2

[12] = system: KCNQ2–5; conditions: cited from earlier work
[13] = set-up: method as in PMID 24781306; conditions: cited from earlier work

KCNQ3* (KCNQ3-A315T), sequence (O43525 whole entry A315T, looked up): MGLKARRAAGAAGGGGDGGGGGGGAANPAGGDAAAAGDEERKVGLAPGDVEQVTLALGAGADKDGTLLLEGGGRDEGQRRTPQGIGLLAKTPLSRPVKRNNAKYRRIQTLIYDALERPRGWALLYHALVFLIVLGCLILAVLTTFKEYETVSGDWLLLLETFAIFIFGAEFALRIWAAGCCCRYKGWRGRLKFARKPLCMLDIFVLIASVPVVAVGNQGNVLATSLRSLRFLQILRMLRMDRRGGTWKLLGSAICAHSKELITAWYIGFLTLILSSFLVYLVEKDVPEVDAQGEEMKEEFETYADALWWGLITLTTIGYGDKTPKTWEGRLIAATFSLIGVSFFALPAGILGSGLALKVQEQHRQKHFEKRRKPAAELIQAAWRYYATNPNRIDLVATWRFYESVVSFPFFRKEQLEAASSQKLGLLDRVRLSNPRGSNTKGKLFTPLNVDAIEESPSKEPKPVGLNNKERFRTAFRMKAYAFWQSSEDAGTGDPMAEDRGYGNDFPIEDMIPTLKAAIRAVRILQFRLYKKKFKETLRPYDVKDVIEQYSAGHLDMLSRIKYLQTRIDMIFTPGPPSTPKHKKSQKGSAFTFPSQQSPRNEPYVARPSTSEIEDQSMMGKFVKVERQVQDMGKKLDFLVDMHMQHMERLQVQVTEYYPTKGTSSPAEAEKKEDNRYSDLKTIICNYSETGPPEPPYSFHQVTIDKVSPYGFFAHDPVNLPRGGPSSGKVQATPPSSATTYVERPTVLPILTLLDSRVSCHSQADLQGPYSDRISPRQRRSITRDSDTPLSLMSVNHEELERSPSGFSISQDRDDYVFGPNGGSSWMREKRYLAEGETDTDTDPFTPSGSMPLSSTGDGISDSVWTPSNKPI
KCNA1, sequence (Q09470 whole entry): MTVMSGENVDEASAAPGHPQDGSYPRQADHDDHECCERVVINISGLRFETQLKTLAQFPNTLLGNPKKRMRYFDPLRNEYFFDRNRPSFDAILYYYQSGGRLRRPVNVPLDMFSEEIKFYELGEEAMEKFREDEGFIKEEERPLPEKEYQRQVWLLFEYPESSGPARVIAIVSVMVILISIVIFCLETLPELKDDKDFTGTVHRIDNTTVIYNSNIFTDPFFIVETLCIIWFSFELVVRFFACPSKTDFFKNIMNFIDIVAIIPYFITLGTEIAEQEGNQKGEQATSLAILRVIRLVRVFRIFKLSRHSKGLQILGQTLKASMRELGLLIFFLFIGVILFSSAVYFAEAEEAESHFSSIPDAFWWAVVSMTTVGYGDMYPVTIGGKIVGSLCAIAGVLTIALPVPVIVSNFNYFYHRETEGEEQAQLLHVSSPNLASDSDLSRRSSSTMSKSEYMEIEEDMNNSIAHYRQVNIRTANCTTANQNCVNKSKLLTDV

**Q.** Which “sensitivity of KCNQ2-W236L/KCNQ3-W265L channels” value [1] does the source give for `Oc1ccccc1S` [2-Mercaptophenol, 2-mercaptophenol] here?
**A.** insensitive

**Q.** And the “Non-normalized tail current V0.5” value ([1]; W236L-Q2/W265L-Q3)?
**A.** -53.8 ± 1.7 mV

**Q.** What about the “Normalized tail current V0.5” value ([1]; W236L-Q2/W265L-Q3) of the same compound?
**A.** -51.0 ± 4.2 mV

**Q.** What about the “effect on voltage dependence of KCNQ2/3 activation (initial screen)” value ([2]; 100 µM, tail currents at −30 mV) of the same compound?
**A.** positive-shifted

**Q.** What about the “effect of 2-mercaptophenol on ability of MTX to activate KCNQ2/3” value ([2]; 2-mercaptophenol 100 µM with MTX 30 µM) of the same compound?
**A.** did not alter

**Q.** What about the “Non-normalized tail current V0.5” value ([2]; 0.01 µM) of the same compound?
**A.** -37.2 ± 3.7 mV

**Q.** What about the “Normalized tail current V0.5” value ([2]; 0.01 µM) of the same compound?
**A.** -37.7 ± 1.5 mV

**Q.** And the Slope ([2]; 0.01 µM)?
**A.** 7.4 ± 1.6 mV

**Q.** What about the “Non-normalized tail current V0.5” value ([2]; 0.1 µM) of the same compound?
**A.** -40.9 ± 3.2 mV

**Q.** What about the “Normalized tail current V0.5” value ([2]; 0.1 µM) of the same compound?
**A.** -43.4 ± 3.6 mV

**Q.** And the Slope ([2]; 0.1 µM)?
**A.** 5.4 ± 1.2 mV

**Q.** What about the “Non-normalized tail current V0.5” value ([2]; 1 µM) of the same compound?
**A.** -43.2 ± 2.6 mV

**Q.** What about the “Normalized tail current V0.5” value ([2]; 1 µM) of the same compound?
**A.** -43.6 ± 0.8 mV

**Q.** And the Slope ([2]; 1 µM)?
**A.** 6.4 ± 0.9 mV

**Q.** And the “Non-normalized tail current V0.5” value ([2]; 10 µM)?
**A.** -43.2 ± 2.8 mV

**Q.** What about the “Normalized tail current V0.5” value ([2]; 10 µM) of the same compound?
**A.** -43.7 ± 1.1 mV

**Q.** And the Slope ([2]; 10 µM)?
**A.** 7.4 ± 1.1 mV

**Q.** What about the “Non-normalized tail current V0.5” value ([2]; 100 µM) of the same compound?
**A.** -34.5 ± 4.6 mV

**Q.** What about the “Normalized tail current V0.5” value ([2]; 100 µM) of the same compound?
**A.** -29.5 ± 2.5 mV

**Q.** What about the Slope ([2]; 100 µM) of the same compound?
**A.** 5.0 ± 1.2 mV

**Q.** And the “Non-normalized tail current V0.5” value ([2]; 300 µM)?
**A.** -22.5 ± 7.2 mV

**Q.** And the “Normalized tail current V0.5” value ([2]; 300 µM)?
**A.** -19.8 ± 1.4 mV

**Q.** What about the Slope ([2]; 300 µM) of the same compound?
**A.** 8.3 ± 0.9 mV

**Q.** And the “concentration at which KCNQ2/3 inhibition begins” value ([2]; activating at lower concentrations)?
**A.** ~ 100 µM

**Q.** Which EC50 ([3]; high affinity partial agonist) does the source give for `NCC(O)CC(=O)O` (stereo not drawn) [GABOB, γ-amino-β-hydroxybutyric acid, reference compound] here?
**A.** 120 nM

**Q.** And the “effect of GABOB on IVA effects on KCNQ2/3” value ([2]; GABOB 100 µM with IVA 500 µM)?
**A.** highly effective at competing out effects of IVA

**Q.** What about the “effect of GABOB on MTX effects on KCNQ2/3” value ([2]; GABOB 100 µM with MTX 30 µM) of the same compound?
**A.** only partially diminishes

**Q.** Which results are given for `CC(C)CC(=O)O` [IVA, isovaleric acid]?
**A.** clonic seizure incidence ([4]; 10 mg/kg i.p. alone): neither compound reduced clonic seizures alone; clonic seizure incidence ([4]; 20 mg/kg i.p., 30 min before 80 mg kg−1 PTZ): no effect; suppression of PTZ-induced tonic seizures ([4]; individually): ineffective; Slope ([5]; KCNA1 (table title), 500 µM): 6.9 ± 1.1 mV; effect on KCNA1 currents ([5]; MTX concentration not given, IVA 500 µM): did not alter currents

**Q.** Which “passage through biological membranes” value [6] does the source give for `CC(C)CC(N)=O` [Isovaleramide, isovaleramide] here?
**A.** readily passes though biological membranes

**Q.** What about the “mean Tmax” value ([6]; humans) of the same compound?
**A.** 0.5 to 0.75 h

**Q.** What about the mean elimination half-life ([6]; humans) of the same compound?
**A.** 2.5 h

**Q.** What about the well tolerated dose ([6]; humans) of the same compound?
**A.** at least 2400 mg per day

**Q.** For `CCOC(=O)Nc1ccc(NCc2ccc(F)cc2)cc1N` [Retigabine, retigabine, reference compound], which “Non-normalized tail current V0.5” value [7] is on record?
**A.** -45.8 ± 2.8 mV

**Q.** What about the “Normalized tail current V0.5” value [7] of the same compound?
**A.** -46.0 ± 0.9 mV

**Q.** And the “Non-normalized tail current V0.5” value [8]?
**A.** -10.2 ± 7.5 mV

**Q.** What about the “Normalized tail current V0.5” value [8] of the same compound?
**A.** -9.7 ± 1.1 mV

**Q.** And the “Non-normalized tail current V0.5” value [9]?
**A.** -63.9 ± 7.7 mV

**Q.** What about the “Normalized tail current V0.5” value [9] of the same compound?
**A.** -61.9 ± 2.2 mV

**Q.** What about the “shift in midpoint voltage of activation” value [10] of the same compound?
**A.** −24 mV

**Q.** What about the “Non-normalized tail current V0.5” value [11] of the same compound?
**A.** -51.6 ± 6.6 mV

**Q.** What about the “Normalized tail current V0.5” value [11] of the same compound?
**A.** -51.7 ± 0.7 mV

**Q.** And the “order of potency across KCNQ isoforms” value [12]?
**A.** KCNQ3 > KCNQ2/3 > KCNQ2 > KCNQ4 > KCNQ5

**Q.** And the “effects on KCNQ2/3” value ([2]; 1 µM alone)?
**A.** negligible effects

**Q.** And the “Non-normalized tail current V0.5” value ([2]; 1 µM)?
**A.** -41.7 ± 2.3 mV

**Q.** What about the “Normalized tail current V0.5” value ([2]; 1 µM) of the same compound?
**A.** -41.9 ± 0.7 mV

**Q.** And the “Non-normalized tail current V0.5” value ([2]; 10 µM)?
**A.** -61.8 ± 4.8 mV

**Q.** What about the “Normalized tail current V0.5” value ([2]; 10 µM) of the same compound?
**A.** -61.4 ± 1.1 mV

**Q.** What about the Slope ([2]; 10 µM) of the same compound?
**A.** 6.7 ± 1.1 mV

**Q.** And the “shift of KCNQ2/3 activation V0.5” value ([2]; RTG 10 µM)?
**A.** −13 mV

**Q.** With `CC(=O)O` [acetate] as the compound, how does the “crossing of the blood brain barrier” value [13] read?
**A.** readily cross the blood brain barrier

**Q.** For `CCCCC(=O)O` [valeric acid], which “ability to activate KCNQ2/3 channels” value [3] is on record?
**A.** inactive
